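Each compound was tested at five concentrations against cells in 96-well plates for 48 hours. GI50: concentration for 50% inhibition of growth.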 Activity calls are given as the source filed them. Rule as the data show it: active = GI50 up to about 1.1 µM and inactive = higher.
Assays:
Test in all cases: growth of human tumour cells (NCI), 48 h
NCI-H226 = system: NCI-H226
HCC 2998 = system: HCC 2998
MOLT-4 = system: MOLT-4
SK-MEL-28 = system: SK-MEL-28
Malme-3M = system: Malme-3M
RPMI-8226 = system: RPMI-8226
CCRF-CEM = system: CCRF-CEM
IGROV-1 = system: IGROV-1
K562 = system: K562
NCI-H522 = system: NCI-H522
OVCAR-4 = system: OVCAR-4
U-251 = system: U-251
SF-295 = system: SF-295
NCI-H460 = system: NCI-H460
OVCAR-3 = system: OVCAR-3
HOP-92 = system: HOP-92
COLO 205 = system: COLO 205
OVCAR-8 = system: OVCAR-8
MDA-MB-435 = system: MDA-MB-435
A498 = system: A498
SF-539 = system: SF-539
SK-OV-3 = system: SK-OV-3
HCT-116 = system: HCT-116
SN12C = system: SN12C
KM12 = system: KM12
DU-145 = system: DU-145
SR = system: SR
SW-620 = system: SW-620
OVCAR-5 = system: OVCAR-5
UO-31 = system: UO-31
HCT-15 = system: HCT-15
RXF 393 = system: RXF 393
SK-MEL-2 = system: SK-MEL-2
786-0 = system: 786-0
LOX IMVI = system: LOX IMVI
ACHN = system: ACHN
HL-60 = system: HL-60
T47D = system: T47D
SNB-75 = system: SNB-75
PC-3 = system: PC-3
A549 = system: A549
SNB-19 = system: SNB-19
MCF7 = system: MCF7
NCI-H23 = system: NCI-H23
CAKI-1 = system: CAKI-1
M14 = system: M14
HT-29 = system: HT-29
MDA-MB-231 = system: MDA-MB-231
NCI/ADR-RES = system: NCI/ADR-RES
MDA-N = system: MDA-N
EKVX = system: EKVX
BT-549 = system: BT-549
UACC-62 = system: UACC-62
TK-10 = system: TK-10
HOP-62 = system: HOP-62
UACC-257 = system: UACC-257
SK-MEL-5 = system: SK-MEL-5
SF-268 = system: SF-268

NC(=O)CC1(O)C=CC(=O)C=C1
GI50 (NCI-H226): > 100 µM (inactive) | GI50 (HCC 2998): > 100 µM (inactive) | GI50 (MOLT-4): > 100 µM (inactive) | GI50 (SK-MEL-28): > 100 µM (inactive) | GI50 (Malme-3M): > 100 µM (inactive) | GI50 (RPMI-8226): > 100 µM (inactive) | GI50 (CCRF-CEM): > 100 µM (inactive) | GI50 (IGROV-1): > 100 µM (inactive) | GI50 (K562): > 100 µM (inactive) | GI50 (NCI-H522): 26.8 µM (inactive) | GI50 (OVCAR-4): > 100 µM (inactive) | GI50 (U-251): > 100 µM (inactive) | GI50 (SF-295): > 100 µM (inactive) | GI50 (NCI-H460): > 100 µM (inactive) | GI50 (OVCAR-3): > 100 µM (inactive) | GI50 (HOP-92): > 100 µM (inactive) | GI50 (COLO 205): > 100 µM (inactive) | GI50 (OVCAR-8): > 100 µM (inactive) | GI50 (MDA-MB-435): > 100 µM (inactive) | GI50 (A498): > 100 µM (inactive) | GI50 (SF-539): > 100 µM (inactive) | GI50 (SK-OV-3): > 100 µM (inactive) | GI50 (HCT-116): > 100 µM (inactive) | GI50 (SN12C): > 100 µM (inactive) | GI50 (KM12): > 100 µM (inactive) | GI50 (DU-145): > 100 µM (inactive) | GI50 (SR): 88.7 µM (inactive) | GI50 (SW-620): > 100 µM (inactive) | GI50 (OVCAR-5): > 100 µM (inactive) | GI50 (UO-31): > 100 µM (inactive) | GI50 (HCT-15): > 100 µM | GI50 (RXF 393): > 100 µM (inactive) | GI50 (SK-MEL-2): > 100 µM (inactive) | GI50 (786-0): > 100 µM (inactive) | GI50 (LOX IMVI): > 100 µM (inactive) | GI50 (ACHN): > 100 µM (inactive) | GI50 (HL-60): > 100 µM (inactive) | GI50 (T47D): > 100 µM (inactive) | GI50 (SNB-75): > 100 µM (inactive) | GI50 (PC-3): > 100 µM (inactive) | GI50 (A549): > 100 µM (inactive) | GI50 (SNB-19): > 100 µM (inactive) | GI50 (MCF7): > 100 µM (inactive) | GI50 (NCI-H23): > 100 µM (inactive) | GI50 (CAKI-1): 41.9 µM (inactive) | GI50 (M14): > 100 µM (inactive) | GI50 (HT-29): > 100 µM (inactive) | GI50 (MDA-MB-231): > 100 µM (inactive) | GI50 (NCI/ADR-RES): > 100 µM (inactive) | GI50 (MDA-N): > 100 µM (inactive) | GI50 (EKVX): > 100 µM (inactive) | GI50 (BT-549): > 100 µM (inactive) | GI50 (UACC-62): > 100 µM (inactive) | GI50 (TK-10): > 100 µM (inactive) | GI50 (HOP-62): > 100 µM (inactive) | GI50 (UACC-257): > 100 µM (inactive) | GI50 (SK-MEL-5): > 100 µM (inactive)

Cn1c2ccccc2n2c3ncccc3c(=O)cc12
GI50 (NCI-H226): 44.3 µM (inactive) | GI50 (MOLT-4): 36.9 µM (inactive) | GI50 (SK-MEL-28): > 100 µM (inactive) | GI50 (Malme-3M): 45 µM (inactive) | GI50 (RPMI-8226): 48.1 µM (inactive) | GI50 (IGROV-1): 28.9 µM (inactive) | GI50 (K562): 78.3 µM (inactive) | GI50 (NCI-H522): 31.3 µM (inactive) | GI50 (OVCAR-4): > 100 µM (inactive) | GI50 (U-251): 40.4 µM (inactive) | GI50 (SF-295): 45.1 µM (inactive) | GI50 (NCI-H460): 33 µM (inactive) | GI50 (OVCAR-3): 50.2 µM (inactive) | GI50 (HOP-92): 54.5 µM (inactive) | GI50 (COLO 205): 60.4 µM (inactive) | GI50 (OVCAR-8): 46.3 µM (inactive) | GI50 (MDA-MB-435): 61.5 µM (inactive) | GI50 (A498): 24.6 µM (inactive) | GI50 (SF-539): 45.9 µM (inactive) | GI50 (SK-OV-3): > 100 µM (inactive) | GI50 (HCT-116): 15 µM (inactive) | GI50 (SN12C): 44.7 µM (inactive) | GI50 (KM12): 71.9 µM (inactive) | GI50 (DU-145): 49.5 µM (inactive) | GI50 (SW-620): 50 µM (inactive) | GI50 (OVCAR-5): > 100 µM (inactive) | GI50 (SF-268): 64.4 µM (inactive) | GI50 (UO-31): 26.3 µM (inactive) | GI50 (HCT-15): 31 µM | GI50 (RXF 393): 62.8 µM (inactive) | GI50 (786-0): 37.3 µM (inactive) | GI50 (LOX IMVI): 29.9 µM (inactive) | GI50 (ACHN): 27 µM (inactive) | GI50 (T47D): 55.7 µM (inactive) | GI50 (SNB-75): 44.1 µM (inactive) | GI50 (A549): 20.2 µM (inactive) | GI50 (SNB-19): 35.2 µM (inactive) | GI50 (NCI-H23): 43 µM (inactive) | GI50 (CAKI-1): 36.2 µM (inactive) | GI50 (M14): 64.3 µM (inactive) | GI50 (HT-29): 38.9 µM (inactive) | GI50 (MDA-MB-231): 96.8 µM (inactive) | GI50 (NCI/ADR-RES): 50.4 µM (inactive) | GI50 (MDA-N): 54.8 µM (inactive) | GI50 (EKVX): 16.3 µM (inactive) | GI50 (BT-549): 65.8 µM (inactive) | GI50 (TK-10): 74.6 µM (inactive) | GI50 (HOP-62): 32.1 µM (inactive) | GI50 (UACC-257): 75 µM (inactive) | GI50 (SK-MEL-5): 32.9 µM (inactive)

CC(=O)O[C@H]1CC[C@@]2(C)C(=CC[C@@H]3[C@@H]2CC[C@]2(C)C(=O)/C(=C\c4ccccc4)C[C@@H]32)C1
GI50 (NCI-H226): > 100 µM (inactive) | GI50 (HCC 2998): > 100 µM (inactive) | GI50 (MOLT-4): 37.8 µM (inactive) | GI50 (SK-MEL-28): > 100 µM (inactive) | GI50 (Malme-3M): 89.9 µM (inactive) | GI50 (RPMI-8226): > 100 µM (inactive) | GI50 (CCRF-CEM): > 100 µM (inactive) | GI50 (IGROV-1): > 100 µM (inactive) | GI50 (K562): 54.7 µM (inactive) | GI50 (NCI-H522): 51.8 µM (inactive) | GI50 (OVCAR-4): > 100 µM (inactive) | GI50 (U-251): > 100 µM (inactive) | GI50 (SF-295): > 100 µM (inactive) | GI50 (NCI-H460): > 100 µM (inactive) | GI50 (OVCAR-3): 61.9 µM (inactive) | GI50 (HOP-92): > 100 µM (inactive) | GI50 (COLO 205): > 100 µM (inactive) | GI50 (OVCAR-8): > 100 µM (inactive) | GI50 (MDA-MB-435): > 100 µM (inactive) | GI50 (A498): > 100 µM (inactive) | GI50 (SF-539): > 100 µM (inactive) | GI50 (SK-OV-3): > 100 µM (inactive) | GI50 (HCT-116): 96.2 µM (inactive) | GI50 (SN12C): > 100 µM (inactive) | GI50 (KM12): > 100 µM (inactive) | GI50 (DU-145): > 100 µM (inactive) | GI50 (SR): > 100 µM (inactive) | GI50 (SW-620): > 100 µM (inactive) | GI50 (OVCAR-5): > 100 µM (inactive) | GI50 (SF-268): > 100 µM (inactive) | GI50 (UO-31): > 100 µM (inactive) | GI50 (HCT-15): > 100 µM | GI50 (RXF 393): 40.5 µM (inactive) | GI50 (SK-MEL-2): > 100 µM (inactive) | GI50 (786-0): > 100 µM (inactive) | GI50 (LOX IMVI): > 100 µM (inactive) | GI50 (ACHN): > 100 µM (inactive) | GI50 (T47D): > 100 µM (inactive) | GI50 (SNB-75): > 100 µM (inactive) | GI50 (PC-3): 64.7 µM (inactive) | GI50 (A549): > 100 µM (inactive) | GI50 (SNB-19): > 100 µM (inactive) | GI50 (MCF7): > 100 µM (inactive) | GI50 (NCI-H23): > 100 µM (inactive) | GI50 (CAKI-1): > 100 µM (inactive) | GI50 (M14): > 100 µM (inactive) | GI50 (HT-29): > 100 µM (inactive) | GI50 (MDA-MB-231): > 100 µM (inactive) | GI50 (NCI/ADR-RES): > 100 µM (inactive) | GI50 (MDA-N): > 100 µM (inactive) | GI50 (EKVX): > 100 µM (inactive) | GI50 (BT-549): > 100 µM (inactive) | GI50 (UACC-62): > 100 µM (inactive) | GI50 (TK-10): > 100 µM (inactive) | GI50 (HOP-62): 94 µM (inactive) | GI50 (UACC-257): > 100 µM (inactive) | GI50 (SK-MEL-5): 39.4 µM (inactive)
